Results from a melting point compilation (Tetko et al.; mined from patent text by program, amines drawn as free bases though some values may be those of a salt).

| SMILES | melting point |
| --- | --- |
| CNC(=O)C1CCN(Cc2cnc3cc(NC(=O)c4ccc(-c5ccc(F)cc5)cc4)c(C)cc3c2)CC1 | 257 °C |
| O=C(NCCCc1cccs1)n1cc(F)c(=O)[nH]c1=O | 131 to 133 °C |
| CC(OCc1cc2cc(C(F)(F)F)ccc2n1S(=O)(=O)c1ccc2c(c1)OCCO2)C(=O)O (stereo not given) | 70 °C |
| Cn1ncc2c1-c1c(Oc3ccc4c(c3)OCO4)sc(C(=O)NC(C)(C)C)c1CC2 | 171 to 179 °C |
| COc1cccc(-c2nc(C(=O)OC(C)(C)C)c(-c3ccncc3)[nH]2)c1 | 197 to 199 °C |
| COc1cc(N2CCNCC2)cc(OC)c1OC | 73 to 77 °C |
| FC(F)(F)c1cccc(-c2ncc(CCl)c(C3CC3)n2)c1 | 92 to 95 °C |
| Brc1ccc(N2CCN(Cc3ccccc3)CC2)nc1 | 100 °C |
| O=C(NCCN1CCNC1=O)Nc1ccccc1 | 162 to 164 °C |
| O=c1cc(-c2ccoc2)c2ccc(Sc3cc(F)cc(-c4ccccc4)c3)cc2o1 | 122 to 124 °C |
| Fc1ccc(-c2[nH]nc(-c3ccccc3)c2-c2ccncc2)cc1 | 265 to 267 °C |
| Cc1nc(NC(=O)Cc2ccccc2)sc1C(=O)NCc1ccccc1 | 63 to 65 °C |
| CC(C)(C)OC(=O)N1CCC(C(=O)Nc2ccccc2Oc2ccc(OC(F)(F)F)cc2)CC1 | 45 to 48 °C |
| CN(Cc1ccccc1)c1ncnc2c(N3CCS(=O)CC3)nc(N3CCNCC3)nc12 | 214 to 215 °C |
| O=C(OCCN1CCN(CCN2CCOCC2)CC1)c1ccc(O)cc1 | 176 to 178 °C |
| CCCCCCCCCCCCn1nnc(C(C(=O)Nc2c(C(C)C)cccc2C(C)C)(c2ccccc2)c2ccccc2)n1 | 154 to 156 °C |
| CCOC(=O)c1sc(-n2ccc(OC)cc2=O)nc1C | 163 to 165 °C |
| Cc1cc(Cc2cc(C(C)(C)CC(C)(C)C)cc(C(C)(C)CC(C)(C)C)c2O)c(O)c(-n2nc3ccccc3n2)c1 | 138 °C |
| Cc1cccc2[nH]c(=O)n3ccnc3c12 | 308 to 310 °C |
| O=C1CCCc2c1c1cccc3c1n2CCC3 | 160 to 164 °C |
| O=C(O)c1cc(-c2ccc(-c3ccc(C(F)(F)F)cc3)o2)ccc1O | 272 to 273 °C |
| CCCC(=O)NCCCc1cccc(OCC2CC2)c1 | 36 to 37 °C |
| CC(C)[C@H](NC(=O)[C@H](Cc1ccccc1)NC(=O)OCc1ccccc1)[C@@H](O)c1c(-c2ccccc2)c1=O | 175 to 177 °C |
| CN(C)Cc1ccc2cc(NC(=O)c3ccc(-c4ccc(F)cc4)cc3)ccc2n1 | 205 to 208 °C |

| SMILES | melting point |
| --- | --- |
| CC(C)(C)OC(=O)N1c2ncc(Br)cc2C=CC1N (stereo not given) | > 230 °C |
| COC(=O)c1cc(F)c(N2CCC(N)C2)nc1Nc1ccc(F)cc1F (stereo not given) | 139 to 140 °C |
| COC1CN(C(=O)c2cc(-c3ccccc3)c(=O)n3nc(C)c4ccsc4c23)C1 | 169 to 170 °C |
| CC(C)(C)OC(=O)CN1CCN(c2ccnc(-c3nc(=O)c4ccccc4s3)c2)C1=O | 192 to 194 °C |
| COc1cc2c(cc1OC)C(=O)C(=Cc1cc(Cl)cc(Cl)c1)CC2 | 200 to 201 °C |
| O=C1NC(=S)S/C1=C\c1ccc(COc2ccc(C(=O)c3ccccc3)cc2)cc1 | 244 to 246 °C |
| O=[N+]([O-])c1cc(CBr)cc([N+](=O)[O-])c1 | 93 to 94 °C |
| Cc1nn2c(-c3ccncc3)ccnc2c1C#N | 220 to 221 °C |
| CC(=O)c1ccccc1Cc1ccccc1 | 42 to 43 °C |
| O=C(NCCSC(c1ccccc1)(c1ccccc1)c1ccccc1)c1cc2cccc(OCc3ccccc3)c2[nH]1 | 156 to 157 °C |
| CCOCCn1cc2c(C3C(=O)Nc4ccc(Cl)cc43)nc(NCCN3CCOCC3)nc2n1 (stereo not given) | 293 to 294 °C |
| Cc1cc(=O)[nH]c2ccc(Br)cc12 | 292 to 299 °C |
| NS(=O)(=O)c1ccc([C@H]2[C@H](C(=O)Nc3ccc(C(F)(F)F)cc3)C23CCCC3)cc1 (relative stereo) | 234 to 236 °C |
| O=C(Nc1cc(-n2cccn2)nc(-c2ccco2)n1)OCC1CCCC1 | 60 to 61.3 °C |
| CCOC(=O)c1nc2scc(CN(C)Cc3ccccc3)c2c(=O)[nH]1 | 129 °C |
| CC(C)(C)c1cc(C(=O)c2ccc(C#N)cc2)cc(C(C)(C)C)c1O | 166 to 168 °C |
| COC(=O)CCCOc1ccc2c(c1OC)N=C(C=C(O)c1cccnc1)N1CCN=C21 | 199 to 200 °C |
| NC1=NS(=O)N=C1NCCCN(Cc1ccccn1)c1ccccn1 (stereo not given) | 192 to 193 °C |
| COc1ccc(-n2c(=O)[nH]c3c(C(N)=O)nc(-c4cccc(O)c4)nc32)cc1 | 386 to 388 °C |
| C=CC(C)(O)C=CC1=C(C)C(=O)C(OC(C)(C)OC)CC1(C)C (stereo not given) | 47.5 to 49 °C |
| CCCCCCCCCCCCCC(=O)NCCOCCn1c(CCOC)nc2c(N)nc3ccccc3c21 | 85 to 87 °C |
| COc1ccc(OC)c(C(=O)Cl)c1 | 36 to 38 °C |
| CC(C)(C)OC(=O)N(CCCC(=O)NO)Cc1cc2nc(-c3cccc4[nH]ncc34)nc(N3CCOCC3)c2s1 | 149 to 152 °C |
| CC(=O)Nc1c2oc3cc(Cl)ccc3c2nn1C | 290 to 300 °C |

| SMILES | melting point |
| --- | --- |
| CCOP(=O)(OCC)OC(=Cc1nccn1C)c1ccccc1 | 111 to 114 °C |
| CC(=O)OC1CSC(Oc2ccc(-c3ccc(C(F)(F)F)cc3)nc2)C(OC(C)=O)C1OC(C)=O (stereo not given) | 178 to 180 °C |
| Cc1nc(-c2cccnc2)sc1-c1ccnc(Nc2ccc(N3CCSCC3)cc2)n1 | 191 to 193 °C |
| CCN(CC)CCOc1ccc(Nc2ncc3c(n2)N(C)C(=O)N(c2ccc(Cl)cc2Cl)C3)cc1 | 172 °C |
| CC(C)(C)OC(=O)NNCc1ccc(Cl)cc1 | 77 to 82 °C |
| CC1(C(=O)Nc2ccc(OCC3CC3)c(Cl)c2)CC1 | 111 to 113 °C |
| CCCCCCCCc1ccccc1CCC(NC(C)=O)(C(=O)OCC)C(=O)OCC | 37 to 38 °C |
| COC[C@@H]1CN(c2nsc3cc(O)ccc23)C(=O)O1 | 142 to 143 °C |
| CN1Cc2ccccc2[C@H]2c3cccc4c3c(cn4C)C[C@@H]21 (relative stereo) | 184 to 185 °C |
| CCOC(=O)/C=C/c1ccc(OCCOC)cc1Oc1ccc([N+](=O)[O-])cc1 | 61 to 64 °C |
| NCC1CCN(C(c2ccccc2)c2ccccc2)CC1 | 80 °C |
| O=C(NC1CCCCC1)Oc1ccccc1-c1ccccc1 | 119 to 121 °C |
| CSc1cc(C(F)(F)F)cc(Cl)c1-n1c(Br)nc(Cl)c1S(=O)(=O)C(F)F | 116 °C |
| CN(C)c1ccc(CCc2ccc3c(=O)[nH]ncc3c2)cc1 | 257 to 259 °C |
| O=C(Nc1ccc(Cl)c(Cl)c1)OCCCC(=O)c1ccccc1 | 141 to 143 °C |
| Cc1ccc(Oc2ccc(Oc3ccc(C)c(C)c3)cc2)cc1C | 106 °C |
| O=C1CCC(c2ccc(OCC3CO3)c(Cl)c2)=NN1 (stereo not given) | 148 to 149 °C |
| CCn1c(=O)n(O)c(=O)c2cc(F)c(N3CCCCC3)cc21 | 173 to 175 °C |
| O=C1Nc2cc(Cl)ccc2C1c1ncnc2nn(C3CCCCC3)cc12 (stereo not given) | 299 to 303 °C |
| CN(C)S(=O)(=O)c1cc(-c2csc(=Nc3ccc(F)cc3)n2C)ccc1Cl | 144 to 145 °C |
| CON(C)C(=O)c1c(-c2ccc(Cl)cc2)nsc1-c1ccccc1 | 119 to 120 °C |
| N#CCCNC(=O)c1cccc(-c2ccc3c(c2)C(c2ccc(Cl)cc2Cl)CCO3)c1 (stereo not given) | 154 to 155 °C |
